Assay results taken from US6426362B1, “Formulations of tocopherols and methods of making and using them” (Galileo Laboratories, Inc., priority 1999, dated 2002).

System: Oxidatively competent cells
Test: Antimycin A-induced cell death in oxidatively competent cells, SYTOX assay after 4 hours
Format: cell-based, rat-human hybrid (GCL1)
Conditions: for Cell Death (%): ± SD; for potency among the tocopherols tested: Table 1 comparison; for cell death when tested individually: highest concentrations tested
Description: The GCL1 (WiF-B) liver cell line is a hybrid originating from the fusion of rat hepatoma cells (fao) and human fibroblasts (W138). Cassio et al. (1991) J. Cell Biol. 115:1397-1408; Shanks et al. (1994) J. Cell Science 107:813-825. […] Ihrke et al. 1993, J. Cell Biol. 123:1761-1775. At greater than 80% confluence, more than 80% of the cells participate in forming one or more phaselucent, spherical structures that are located between cells, termed bile canicular-like spaces. In contrast to the majority of cell lines maintained in culture which are fermentative, GCL1 cells, when at their maximal density and polarity, are highly oxidative (i.e., they can be readily killed by inhibitors of oxidative phosphorylation or electron transport uncouplers). […] These cells are amenable to use in high throughput screening (HTS) technology.
Energetically competent cells are seeded onto 96-well plates at 1×10^3/well or 2.5×10^3/well as passage 15. The cells are grown in DMEM with 10% FBS and 1.5 g/L sodium bicarbonate for 24 or 48 hours to reach 85% confluence. The cells are washed once with HBSS and then 100 μl of HBSS containing different concentration of AA (Sigma Chemical Co., Cat # A 8674) is added to the cells. AA is dissolved in DMSO to make a stock solution of 50 mM, then diluted with HBSS to 100, 50, 25, 12.5, 6.25, 3.125, and 1.56 μM for dose-response curves. The cells, with or without AA, are incubated at 37° C. in a 5% CO2 humidified incubator for 1, 3, and 5 hours. The concentration of AA is chosen to induce 75% or 100% cell death as a screening dose to test the effect of tocopherols to protect against AA-induced cell toxicity. The concentration of agents used for screening will be dependent upon the agents. Certain control groups contain 100 μl of HBSS only.
SYTOX Green nucleic acid stain is a high-affinity nucleic acid stain that easily penetrates cells with a compromised plasma membrane but will not cross the membrane of live cells. The nucleic acids of dead cells fluoresce bright green at 524 nm when excited with the 488 nm spectral source or with any other 450-500 nm source. […] In the cell viability assay chemical ischemia is created in cells that are incubated with the SYTOX dye. The compound antimycin is used to simulate ischemia at the same time as stimulating the cells with forskolin. […] The assay is performed on cells grown in 96-well format allowing high throughput screening of compounds.
Materials: (i)SYTOX Green dye, supplied as a 5 mM solution in DMSO (Molecular Probes # S-7020) is stored at −20° C. until use. ii.) Antimycin-A: (Sigma # A-8674) dissolve […] in 10 ml of DMSO to make a 10 mM stock solution. Aliquot at 100 μl. This 10 mM stock is then diluted to 1 mM with DMSO and aliquoted at 25 μL. Both the 10 mM and the 1 mM are stored at −20° C. until use. (iii) Forskolin (Sigma # F-6886), dissolve 50 mg aliquot in 1.62 ml of DMSO to make a 100 mM stock solution. Aliquot at 100 μl and store at −20° C. until use. iv.) HBSS-SYTOX-FORSKOLIN-ANTIMYCIN (H-S-F-A) solution: H-S-F-A solution is made up fresh prior to each assay in sterile 175 ml or 225 ml Falcon bottles. The working concentrations for the assay are 3 μM SYTOX, 50 μM Forskolin and 30 μM Antimycin.
Cells are grown in 96-well black plates (with or without clear bottoms) at a density of 1000 cells per well for 24 hours. The necessary number of 96-well plates containing the specific cell type are obtained and placed in the laminar flow safety cabinet. A sterile microtiter basin is filled with the appropriate volume of pre-warmed 1×HBSS. Using aseptic technique and an 8-channel aspirator, the media is carefully removed from the cells and replaced with 200 μl of 1×HBSS. This is done as quickly as possible to prevent the cells drying out. The plates are then placed in the humidified 37° C. incubators of the Biomek 2000 Side Loader.

[1] = salts of (+)alpha-tocopherol, dose of tocopherol 1.2 μg/ml
[2] = salts of (+)alpha-tocopherol, dose of tocopherol 3.7 μg/ml
[3] = salts of (+)alpha-tocopherol, dose of tocopherol 11 μg/ml
[4] = salts of (+)alpha-tocopherol, dose of tocopherol 33 μg/ml
[5] = salts of (+)alpha-tocopherol, dose of tocopherol 100 μg/ml
[6] = dose 1.2 μg/ml, with antimycin A, 4 hours, SYTOX
[7] = dose 3.7 μg/ml, with antimycin A, 4 hours, SYTOX
[8] = dose 11 μg/ml, with antimycin A, 4 hours, SYTOX
[9] = dose 33 μg/ml, with antimycin A, 4 hours, SYTOX
[10] = dose 100 μg/ml, with antimycin A, 4 hours, SYTOX

SMILES	Cell Death (%) [1]	Cell Death (%) [2]	Cell Death (%) [3]	Cell Death (%) [4]	Cell Death (%) [5]	Cell Death (%) [6]	Cell Death (%) [7]	Cell Death (%) [8]	Cell Death (%) [9]	Cell Death (%) [10]	other results
Cc1c(C)c2c(c(C)c1OP(=O)(O)O)CC[C@@](C)(CCC[C@H](C)CCC[C@H](C)CCCC(C)C)O2 [alpha-tocopherol phosphate]	79.7 ± 8.7%	76.5 ± 4.2%	83.9 ± 4.4%	47.2 ± 10.8%	43.2 ± 17.4%						
Cc1c(C)c2c(c(C)c1OC(=O)c1cccnc1)CC[C@@](C)(CCC[C@H](C)CCC[C@H](C)CCCC(C)C)O2 [alpha-tocopherol nicotinate]	81.0 ± 2.5%	76.8 ± 7.0%	74.0 ± 2.4%	77.5 ± 3.0%	67.5 ± 2.8%						
Cc1cc(O)cc2c1O[C@](C)(CCC[C@H](C)CCC[C@H](C)CCCC(C)C)CC2 (relative stereo) [(+) delta-tocopherol, [2R-[2R*(4R*,8R*)]]-3,4-dihydro-2,8-dimethyl-2-(4,8,12-trimethyltridecyl)-2H-1-benzo-pyran-6-ol]						61.3% ± 4.2	39.3% ± 3.8	21.3% ± 1.0	−8.19% ± 1.4	−68.19% ±	potency among the tocopherols tested: most potent
COc1ccc(-c2cc(=O)c3c(O)cc(O[C@@H]4O[C@H](CO[C@@H]5O[C@@H](C)[C@H](O)[C@@H](O)[C@H]5O)[C@@H](O)[C@H](O)[C@H]4O)cc3o2)cc1O [diosmin, reference compound]											protection against stress-induced cell death (diosmin alone at 100 μM): no protection; protection against stress-induced cell death (diosmin alone, 3.3-100 μM): not protective by itself; protection against stress-induced cell death (diosmin alone, 33-100 μM): not effective
COc1ccc([C@@H]2CC(=O)c3c(O)cc(O)cc3O2)cc1O [hesperetin, (S)-2,3-dihydro-5,7-dihydroxy-2-(3-hydroxy-4-methoxyphenyl)-4H-1-benzopyran-4-one]											efficacy when tested separately (2 and 50 μM heperitin, 0.22 and 3.6 μg/ml tocopherol, cell death four hours later): generally ineffective
Cc1c(C)c2c(c(C)c1O)CCC(C)(CCCC(C)CCCC(C)CCCC(C)C)O2 (stereo not drawn) [alpha-tocopherol, 2,5,7,8-tetramethyl-2-(4′,8′,12′-trimethyltridecyl)-6-chromanol]											cell death when tested individually (biochanin A experiment): about half of the cells died
COc1ccc(-c2coc3cc(O)cc(O)c3c2=O)cc1 [biochanin A, 5,7-dihydroxy-4′-methoxyiso-flavone]											cell death when tested individually (biochanin A experiment): about half of the cells died
O=c1c(-c2ccc(O)cc2)coc2cc(O)ccc12 [daidzein, 7-hydroxy-3-(4-hydroxyphenyl)-4H-1-benzopyran-4-one]											cell death when tested individually (daidzein experiment): over half of the cells died
CC(=O)Oc1c(C)c(C)c2c(c1C)CCC(C)(CCC[C@H](C)CCC[C@H](C)CCCC(C)C)O2 (stereo partly drawn) [alpha-tocopherol acetate]	73.2% ± 3.3	77.5% ± 4.9	71.1% ± 1.5	64.8% ± 4.9	38.% ± 2.3						Cell Death (%) (salts of (+)alpha-tocopherol, dose of tocopherol 100 μg/ml, listed as acetate salt of alpha-tocopherol): 38%
Cc1c(O)cc2c(c1C)OC(C)(CCCC(C)CCCC(C)CCCC(C)C)CC2 (centres unmarked) [+ gamma-tocopherol, 3,4-dihydro-2,7,8-trimethyl-2-(4,8,12-trimethyltridecyl)-2H-1-benzyopyran-6-ol]						76.8 ± 3.1%	69.3 ± 3.3%	37.2 ± 0.7%	16.7 ± 1.9%	−8.5 ± 3.3%	cell death (Example 7, alone at 1 μg/ml (highest concentration tested)): 62.5%; potency among the tocopherols tested: most potent; protection against stress-induced cell death (gamma-tocopherol alone, 0.03-0.3 μg/ml): not protective by itself
Cc1c(C)c2c(c(C)c1O)CC[C@@](C)(CCC[C@H](C)CCC[C@H](C)CCCC(C)C)O2 (relative stereo) [(+) alpha-tocopherol, [2R-2R*(4R*,8R*)]-3,4-dihydro-2,5,7,8-tetramethyl-2-(4,8,12-trimethyltridecyl)-2H-1-benzopyran-6-ol]						77.0% ± 2.5	70.13% ± 5.8	64.4% ± 3.1	49.8% ± 6.0	33.78% ± 1.5	
Cc1c(C)c2c(c(C)c1OC(=O)CCC(=O)O)CC[C@@](C)(CCC[C@H](C)CCC[C@H](C)CCCC(C)C)O2 [alpha-tocopherol succinate]	85.8 ± 1.4%	83.9 ± 0.3%	85.5 ± 2.5%	90.4 ± 7.4%	98.7 ± 6.0%						
Cc1c(C)c2c(c(C)c1O)CCC(C)(CCCC(C)CCCC(C)CCCC(C)C)O2 (racemic) [(+/−) alpha-tocopherol, 2,5,7,8-tetramethyl-2-(4′,8′,12′-trimethyltridecyl)-6-chromanol]						77.2% ± 0.8	73.5% ± 1.2	52.4% ± 3.4	44.2% ± 1.2	19.7% ± 2.9	protection against stress-induced cell death ((+/−) alpha-tocopherol alone at 10 μg/ml): about 15%; cell death (Example 7, alone at 10 μg/ml (highest concentration tested)): 53%; cell death (Example 8, tocopherol alone at 10 μg/ml): 79.4%; cell death when tested individually (daidzein experiment): over half of the cells died
